Measurements from ChEMBL document CHEMBL2074021, “Nuclear receptor response elements mediate induction of intestinal MDR1 by rifampin” (J Biol Chem, 2001).

Target: ATP-dependent translocase ABCB1 (Homo sapiens, UniProt P08183)
Assay: TP_TRANSPORTER: Northern blot from LS174T cell
Assay type: functional, cell-based

Chain of ATP-dependent translocase ABCB1 (P08183 whole entry): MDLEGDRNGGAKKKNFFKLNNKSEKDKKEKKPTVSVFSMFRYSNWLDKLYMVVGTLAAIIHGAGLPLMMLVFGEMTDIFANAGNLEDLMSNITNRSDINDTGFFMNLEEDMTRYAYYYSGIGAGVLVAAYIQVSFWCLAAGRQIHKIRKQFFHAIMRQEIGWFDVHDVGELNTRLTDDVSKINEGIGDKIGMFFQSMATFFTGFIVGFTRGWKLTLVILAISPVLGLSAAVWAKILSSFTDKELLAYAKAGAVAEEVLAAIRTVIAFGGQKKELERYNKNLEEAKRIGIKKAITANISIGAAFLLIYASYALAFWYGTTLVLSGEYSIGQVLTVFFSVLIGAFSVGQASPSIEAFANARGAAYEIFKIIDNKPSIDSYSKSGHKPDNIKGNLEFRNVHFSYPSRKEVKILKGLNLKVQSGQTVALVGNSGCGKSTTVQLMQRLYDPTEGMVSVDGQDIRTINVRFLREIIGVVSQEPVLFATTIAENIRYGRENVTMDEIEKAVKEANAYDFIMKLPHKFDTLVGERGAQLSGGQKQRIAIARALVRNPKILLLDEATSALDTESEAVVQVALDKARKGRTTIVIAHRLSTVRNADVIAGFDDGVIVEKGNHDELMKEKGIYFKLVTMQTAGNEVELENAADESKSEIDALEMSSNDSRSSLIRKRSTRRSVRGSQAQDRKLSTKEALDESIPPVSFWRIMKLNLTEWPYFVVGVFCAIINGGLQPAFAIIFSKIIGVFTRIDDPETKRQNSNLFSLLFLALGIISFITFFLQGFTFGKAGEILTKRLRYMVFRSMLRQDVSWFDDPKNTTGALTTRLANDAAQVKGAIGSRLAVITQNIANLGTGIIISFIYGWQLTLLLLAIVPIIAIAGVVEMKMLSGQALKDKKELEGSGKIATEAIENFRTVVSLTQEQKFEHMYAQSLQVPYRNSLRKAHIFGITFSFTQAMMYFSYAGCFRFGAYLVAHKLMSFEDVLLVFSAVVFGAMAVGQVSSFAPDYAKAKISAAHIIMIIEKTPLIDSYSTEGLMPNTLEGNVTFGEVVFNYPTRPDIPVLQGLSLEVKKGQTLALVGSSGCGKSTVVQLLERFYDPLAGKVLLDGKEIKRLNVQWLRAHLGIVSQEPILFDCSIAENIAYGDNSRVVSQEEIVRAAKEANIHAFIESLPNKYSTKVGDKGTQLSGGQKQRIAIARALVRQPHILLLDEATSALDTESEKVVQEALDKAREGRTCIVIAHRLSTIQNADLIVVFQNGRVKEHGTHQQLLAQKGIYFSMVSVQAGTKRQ

SMILES	Activity
CC(=O)[C@H]1CC[C@H]2[C@@H]3CC[C@@H]4CC(=O)CC[C@]4(C)[C@H]3CC[C@]12C	inducer [+]
NC(=O)N1c2ccccc2C=Cc2ccccc21 [CARBAMAZEPINE]	inducer [+]
Clc1ccccc1C(c1ccccc1)(c1ccccc1)n1ccnc1 [CLOTRIMAZOLE]	inducer [+]
COC(=O)C1=C(C)NC(C)=C(C(=O)OC)C1c1ccccc1[N+](=O)[O-] [NIFEDIPINE]	inducer [+]
CC(=O)[C@H]1[C@H](C#N)C[C@H]2[C@@H]3CC=C4C[C@@H](O)CC[C@]4(C)[C@H]3CC[C@@]21C [PREGNENOLONE CARBONITRILE]	inducer [+]

Continued, values first:

Activity	SMILES
inducer [+]	C[C@]12C[C@H](O)[C@H]3[C@@H](CCC4=CC(=O)CC[C@@]43C)[C@@H]1CC[C@@H]2C(=O)CO [CORTICOSTERONE]
inducer [+]	C[C@@H]1C[C@H]2[C@@H]3CCC4=CC(=O)C=C[C@]4(C)[C@@]3(F)[C@@H](O)C[C@]2(C)[C@@]1(O)C(=O)CO [DEXAMETHASONE]
inducer [+]	CC#C[C@]1(O)CC[C@H]2[C@@H]3CCC4=CC(=O)CCC4=C3[C@@H](c3ccc(N(C)C)cc3)C[C@@]21C [MIFEPRISTONE]
inducer [+]	COC(=O)[C@H]1[C@H]2C[C@@H]3c4[nH]c5cc(OC)ccc5c4CCN3C[C@H]2C[C@@H](OC(=O)c2cc(OC)c(OC)c(OC)c2)[C@@H]1OC [RESERPINE]
inducer [+]	CO[C@H]1/C=C/O[C@@]2(C)Oc3c(C)c(O)c4c(O)c(c(/C=N/N5CCN(C)CC5)c(O)c4c3C2=O)NC(=O)/C(C)=C\C=C\[C@H](C)[C@H](O)[C@@H](C)[C@@H](O)[C@@H](C)[C@H](OC(C)=O)[C@@H]1C [RIFAMPIN]
